US6964949B2, “Pharmaceutical compositions for promoting the growth of gram-positive bacilli and increasing the acidity in the vagina and the use thereof” (Shanghai Jiao Da Onlly Co., Ltd., priority 2000, dated 2005)

How the values were obtained:
Format in all cases: cell-based
[1] = test system: Gram-positive cocci; experiment: Experiment Example 5: influence of composition pH (10.0% maltose), specimen culture, Gram smear; conditions: 1.0% yeast extract, 1.6% xanthan gum
Text: (§1) • (1)The preparation of the compositions: Maltose was used to prepare the following compositions according to the method mentioned above: • A. 10.0% maltose, 1.0% yeast extract, 1.6% xanthan gum, pH adjusted to 4.4; • B. 10.0% maltose, 1.0% yeast extract, 1.6% xanthan gum, pH adjusted to 4.8; • C. 10.0% maltose, 1.0% yeast extract, 1.6% xanthan gum, pH adjusted to 5.1; • D. 10.0% maltose, 1.0% yeast extract, 1.6% xanthan gum, pH adjusted to 5.4; • E. 10.0% maltose, 1.0% yeast extract, 1.6% xanthan gum, pH adjusted to 5.8; • F. 10.0% maltose, 1.0% yeast extract, 1.6% xanthan gum, pH adjusted to 6.4; • G. 10.0% maltose, 1.0% yeast extract, 1.6% xanthan gum, pH adjusted to 6.8; • H. 10.0% maltose, 1.0% yeast extract, 1.6% xanthan gum, pH adjusted to 7.2; • (2)The preparation of the test tubes: Compositions prepared above were filled into the test tubes, with each tube containing 5 ml, sterilized, and kept until use for experiments. • (3)Specimen suspension: Vaginal secretion was taken from one of the patients suffering from typical bacterial vaginosis with a cotton swab, then the swab was washed in 2 ml sterilized Trypcase-soy Broth immediately, and thus the specimen suspension was ready. […] Then the tubes were placed in a candle jar and cultivated at 37° C. After 24 hours and 48 hours' culture, culture samples were taken respectively from each of the tubes, then the Gram smears of the samples were observed and the pH values of culture samples were tested.

[2] = test system: Gram-negative cocci; experiment: as above; conditions: 1.0% yeast extract, 1.6% xanthan gum
Text: as §1

[3] = test system: Gram-positive cocci; experiment: Experiment Example 3: 2.5% maltose or sucrose, specimen culture, Gram smear; conditions: 2.5% saccharide, 1.0% yeast extract, 1.6% xanthan gum, pH 6.2, candle jar, 37° C.
Procedure: (§2) • (1) The preparation of the compositions: Maltose and sucrose were used respectively to prepare the following composition according to the methods mentioned above: • A. 2.5% maltose, 1.0% yeast extract, 1.6% xanthan gum, pH adjusted to 6.2; • B. 2.5% sucrose, 1.0 yeast extract, 1.6% xanthan gum, pH adjusted to 6.2; • (2) The preparation of the test tubes: Compositions as prepared above were filled into the test tubes, with each tube containing 5 ml, sterilized, and kept until use for experiment. • (3) Specimen suspension: Vaginal secretion was taken from one of the patients suffering from typical bacterial vaginosis with a cotton swab, then the swab was washed in 2 ml sterilized Trypcase-soy Broth immediately, and thus the specimen suspension was ready. […] Then the tubes were placed in a candle jar and cultivated at 37° C. After 24 hours and 48 hours' culture, culture samples were taken respectively from each of the tubes, then the Gram smears of the samples were observed and the pH values of culture samples were tested.

[4] = test system: Gram-negative cocci; experiment: as above; conditions: 2.5% saccharide, 1.0% yeast extract, 1.6% xanthan gum, pH 6.2, candle jar, 37° C.
Procedure: as §2

[5] = test system: Gram-positive bacilli; experiment: as above; conditions: 2.5% saccharide, 1.0% yeast extract, 1.6% xanthan gum, pH 6.2, candle jar, 37° C.
Procedure: as §2

[6] = test system: vaginal secretion specimen of a patient suffering from typical bacterial vaginosis; experiment: Experiment Example 4: pH of culture samples (production of acids); conditions: 17.0% saccharide, 1.0% yeast extract, 1.6% xanthan gum, pH 6.2, candle jar, 37° C.
Procedure: as §2, with “• (1)The” for “• (1) The”, “composition in” for “composition according to”, “A. 17.0%” for “A. 2.5%”, “B. 17.0%” for “B. 2.5%”, “sucrose, 1.0%” for “sucrose, 1.0”, “Compositions” for “Compositions as”

[7] = pH of the composition 4.4, 24 hours
[8] = pH of the composition 4.4, 48 hours
[9] = pH of the composition 4.8, 24 hours
[10] = pH of the composition 4.8, 48 hours
[11] = pH of the composition 5.1, 24 hours
[12] = pH of the composition 5.1, 48 hours
[13] = pH of the composition 5.4, 24 hours
[14] = pH of the composition 5.4, 48 hours
[15] = pH of the composition 5.8, 24 hours
[16] = pH of the composition 5.8, 48 hours
[17] = pH of the composition 6.4, 24 hours
[18] = pH of the composition 6.4, 48 hours
[19] = pH of the composition 6.8, 24 hours
[20] = pH of the composition 6.8, 48 hours
[21] = pH of the composition 7.2, 24 hours
[22] = pH of the composition 7.2, 48 hours

OC[C@H]1O[C@H](O[C@H]2[C@H](O)[C@@H](O)[C@H](O)O[C@@H]2CO)[C@H](O)[C@@H](O)[C@@H]1O [Maltose, maltose]
Bacteria G + c (Gram-positive cocci), 24 hours culture [1, 7]: G + c, − (No or less than one bacterium per field of version under oil-immersion lens) | Bacteria G + c (Gram-positive cocci), 48 hours culture [1, 8]: G + c, − (No or less than one bacterium per field of version under oil-immersion lens) | Bacteria G + c (Gram-positive cocci), 24 hours culture [1, 9]: G + c, + (1-9 bacteria per field of vision under oil-immersion lens) | Bacteria G + c (Gram-positive cocci), 48 hours culture [1, 10]: G + c, + (1-9 bacteria per field of vision under oil-immersion lens) | Bacteria G + c (Gram-positive cocci), 24 hours culture [1, 11]: G + c, + (1-9 bacteria per field of vision under oil-immersion lens) | Bacteria G + c (Gram-positive cocci), 48 hours culture [1, 12]: G + c, ++ (About 10-99 bacteria per field of vision under oil-immersion lens) | Bacteria G + c (Gram-positive cocci), 24 hours culture [1, 13]: G + c, + (1-9 bacteria per field of vision under oil-immersion lens) | Bacteria G + c (Gram-positive cocci), 48 hours culture [1, 14]: G + c, − (No or less than one bacterium per field of version under oil-immersion lens) | Bacteria G + c (Gram-positive cocci), 24 hours culture [1, 15]: G + c, + (1-9 bacteria per field of vision under oil-immersion lens) | Bacteria G + c (Gram-positive cocci), 48 hours culture [1, 16]: G + c, + (1-9 bacteria per field of vision under oil-immersion lens) | Bacteria G + c (Gram-positive cocci), 24 hours culture [1, 17]: G + c, + (1-9 bacteria per field of vision under oil-immersion lens) | Bacteria G + c (Gram-positive cocci), 48 hours culture [1, 18]: G + c, + (1-9 bacteria per field of vision under oil-immersion lens) | Bacteria G + c (Gram-positive cocci), 24 hours culture [1, 19]: G + c, − (No or less than one bacterium per field of version under oil-immersion lens) | Bacteria G + c (Gram-positive cocci), 48 hours culture [1, 20]: G + c, + (1-9 bacteria per field of vision under oil-immersion lens) | Bacteria G + c (Gram-positive cocci), 24 hours culture [1, 21]: G + c, − (No or less than one bacterium per field of version under oil-immersion lens) | Bacteria G + c (Gram-positive cocci), 48 hours culture [1, 22]: G + c, − (No or less than one bacterium per field of version under oil-immersion lens) | Bacteria G − c (Gram-negative cocci), 24 hours culture [2, 7]: G − c, − (No or less than one bacterium per field of version under oil-immersion lens) | Bacteria G − c (Gram-negative cocci), 48 hours culture [2, 8]: G − c, − (No or less than one bacterium per field of version under oil-immersion lens) | Bacteria G − c (Gram-negative cocci), 24 hours culture [2, 9]: G − c, − (No or less than one bacterium per field of version under oil-immersion lens) | Bacteria G − c (Gram-negative cocci), 48 hours culture [2, 10]: G − c, − (No or less than one bacterium per field of version under oil-immersion lens) | Bacteria G − c (Gram-negative cocci), 24 hours culture [2, 11]: G − c, − (No or less than one bacterium per field of version under oil-immersion lens) | Bacteria G − c (Gram-negative cocci), 48 hours culture [2, 12]: G − c, − (No or less than one bacterium per field of version under oil-immersion lens) | Bacteria G − c (Gram-negative cocci), 24 hours culture [2, 13]: G − c, − (No or less than one bacterium per field of version under oil-immersion lens) | Bacteria G − c (Gram-negative cocci), 48 hours culture [2, 14]: G − c, − (No or less than one bacterium per field of version under oil-immersion lens) | Bacteria G − c (Gram-negative cocci), 24 hours culture [2, 15]: G − c, − (No or less than one bacterium per field of version under oil-immersion lens) | Bacteria G − c (Gram-negative cocci), 48 hours culture [2, 16]: G − c, − (No or less than one bacterium per field of version under oil-immersion lens) | Bacteria G − c (Gram-negative cocci), 24 hours culture [2, 17]: G − c, − (No or less than one bacterium per field of version under oil-immersion lens) | Bacteria G − c (Gram-negative cocci), 48 hours culture [2, 18]: G − c, − (No or less than one bacterium per field of version under oil-immersion lens) | Bacteria G − c (Gram-negative cocci), 24 hours culture [2, 19]: G − c, − (No or less than one bacterium per field of version under oil-immersion lens) | Bacteria G − c (Gram-negative cocci), 48 hours culture [2, 20]: G − c, − (No or less than one bacterium per field of version under oil-immersion lens) | Bacteria G − c (Gram-negative cocci), 24 hours culture [2, 21]: G − c, − (No or less than one bacterium per field of version under oil-immersion lens) | Bacteria G − c (Gram-negative cocci), 48 hours culture [2, 22]: G − c, − (No or less than one bacterium per field of version under oil-immersion lens) | Bacteria G + c (Gram-positive cocci), 24 hours-culture ([3]; 24 hours): G + c, − (No or less than one bacterium per field of version under oil-immersion lens) | Bacteria G + c (Gram-positive cocci), 48 hours-culture ([3]; 48 hours): G + c, + (1-9 bacteria per field of vision under oil-immersion lens) | Bacteria G − c (Gram-negative cocci), 24 hours-culture ([4]; 24 hours): G − c, − (No or less than one bacterium per field of version under oil-immersion lens) | Bacteria G − c (Gram-negative cocci), 48 hours-culture ([4]; 48 hours): G − c, − (No or less than one bacterium per field of version under oil-immersion lens) | Bacteria G + b (Gram-positive bacilli), 24 hours-culture ([5]; 24 hours): G + b, + (1-9 bacteria per field of vision under oil-immersion lens) | Bacteria G + b (Gram-positive bacilli), 48 hours-culture ([5]; 48 hours): G + b, +++ (About 100 bacteria or more per field vision under oil-immersion lens, even uncountable) | pH, 24 hours culture ([6]; 24 hours): 5.4 | pH, 48 hours culture ([6]; 48 hours): 5.1
